Test systems include Escherichia coli BL21; Vibrio cholerae; Candida albicans; Escherichia coli; Listeria monocytogenes.
What all share (experiment): ≥ marks a high value that may be exact or a test limit, other limits are often not marked, values filed in µg/mL are converted to µM
The subject of test [1] is Bacillus subtilis ATCC 23857.
The test system of test [2] is Escherichia coli ATCC 25922.
Test [3] relates to Escherichia coli ATCC 700926.
The test system of test [4] is Pseudomonas aeruginosa ATCC 27853.
The test system of test [5] is Pseudomonas aeruginosa ATCC 9027.
Test [6] deals with Staphylococcus aureus ATCC 43300.
Test [7] relates to Staphylococcus aureus ATCC 6538P.
Test [8] concerns Staphylococcus aureus ATCC 6538.
Test [9] has as its system Staphylococcus aureus USA 300.
For test [10], the system named is Staphylococcus aureus USA 400.
Test [11] deals with Staphylococcus epidermidis ATCC 12228.
The test system of test [12] is Bacillus subtilis IFO 3513.
For test [13], the system named is Escherichia coli IFO 12734.
The test system of test [14] is Micrococcus luteus ATCC 9341.
The subject of test [15] is Staphylococcus aureus IFO 12732.
Test [16] relates to Acinetobacter baumannii NM109.
For test [17], the system named is Acinetobacter baumannii NM124.
The test system of test [18] is Acinetobacter baumannii NM35.
Test [19] has as its system Acinetobacter baumannii NM75.
Test [20] relates to Acinetobacter baumannii NM8.
Test [21] relates to Candida albicans ATCC 90028.
Test [22] concerns Enterococcus faecalis ATCC 29212.
Test [23] relates to Escherichia coli ATCC 25726.
Test [24] has as its system Klebsiella pneumoniae ATCC 700603.
Test [25] has as its system Staphylococcus aureus 145/08.
Test [26] concerns Staphylococcus aureus ATCC 25923.
The subject of test [27] is Staphylococcus epidermidis RP62A/1.
Test [28] concerns Staphylococcus epidermidis RP62A.
For test [29], the system named is Staphylococcus epidermidis T37/8.
Test [30] concerns Staphylococcus epidermidis T6/19.
Test [31] concerns Stenotrophomonas maltophilia B32/1.
Test [32] has as its system Stenotrophomonas maltophilia B32/4.
In test [33] the test system is Stenotrophomonas maltophilia B5/5.
The test system of test [34] is Stenotrophomonas maltophilia B6/2.
Test [35] concerns Stenotrophomonas maltophilia U8908.
The subject of test [36] is Salmonella enterica subsp. enterica serovar Typhi.
The test system of test [37] is Staphylococcus epidermidis.
Test [38] deals with Neisseria gonorrhoeae F-62.
Test [39] concerns Neisseria gonorrhoeae FA-19.
Test [40] deals with Acinetobacter baumannii ATCC 19606.
The test system of test [41] is Candida albicans NCTC 3179.
Test [42] concerns Enterococcus faecalis NCTC 12697.
For test [43], the system named is Lactobacillus acidophilus NCTC 1723.
Test [44] has as its system Pseudomonas aeruginosa 8600.
Test [45] has as its system Streptococcus mutans NCTC 10449.

Molecules are shown by their SMILES. Converted amounts (≈) assume the structure as drawn. “And” between values parts separate entries of the source, which are not always exact repeats. Identical values can stand only once.

The values below come from DBAASP.

`CC[C@H](C)[C@H](NC(=O)[C@H](CCCCN)NC(=O)[C@H](CCCCN)NC(=O)[C@@H](NC(=O)[C@@H](NC(=O)[C@H](CCCCN)NC(=O)[C@H](CCCCN)NC(=O)[C@@H](NC(=O)[C@@H](NC(=O)[C@H](CCCCN)NC(=O)[C@H](CCCCN)NC(=O)[C@@H](NC(=O)[C@@H](NC(=O)CN)[C@@H](C)CC)[C@@H](C)CC)[C@@H](C)CC)[C@@H](C)CC)[C@@H](C)CC)[C@@H](C)CC)C(=O)O` [GIIKKIIKKIIKKI]: the MIC in [1] was determined as 2.4 µM (≈ 3.93 µg/mL); in test [2], 5.7 µM (≈ 9.33 µg/mL); in test [3], 15.6 µM (≈ 25.5 µg/mL); in the test on Escherichia coli BL21 it was 15.6 µM (≈ 25.5 µg/mL); in test [4], 15.6 µM (≈ 25.5 µg/mL); in [5], 9.3 µM (≈ 15.2 µg/mL). In addition, the minimal inhibitory concentration (MIC) is 125 µM (≈ 205 µg/mL) in test [6]; 7.8 µM (≈ 12.8 µg/mL) in test [7]; 128 µM and 62.5 µM in test [8]; not below 125 µM in test [9]; not below 125 µM in test [10]; 3.9 µM (≈ 6.38 µg/mL) in test [11].

On to `CC[C@H](C)[C@H](N)C(=O)N[C@@H](CC(C)C)C(=O)N1CCC[C@H]1C(=O)N[C@@H](Cc1ccc(O)cc1)C(=O)N[C@@H](CCCCN)C(=O)N[C@@H](Cc1ccc(O)cc1)C(=O)N1CCC[C@H]1C(=O)N[C@@H](Cc1ccc(O)cc1)C(=O)N[C@@H](Cc1ccc(O)cc1)C(=O)N1CCC[C@H]1C(=O)N[C@@H](Cc1ccc(O)cc1)C(=O)N[C@@H](CCCN=C(N)N)C(=O)N[C@@H](CCCN=C(N)N)C(N)=O` [ILPYKYPYYPYRR], for which the MIC is 14 µM (≈ 25 µg/mL) in [12], not below 55.8 µM in test [13], 6.3 µM (≈ 11.3 µg/mL) in test [14] and 14 µM (≈ 25 µg/mL) in [15].

For `CC[C@H](C)[C@H](NC(=O)[C@H](C)NC(=O)[C@@H](NC(=O)[C@H](C)NC(=O)CNC(=O)[C@H](CCCCN)NC(=O)[C@@H](NC(=O)[C@H](C)NC(=O)CNC(=O)[C@H](CCCCN)NC(=O)[C@H](CC(C)C)NC(=O)[C@@H](NC(=O)[C@H](CCCCN)NC(=O)[C@H](CCCCN)NC(=O)[C@H](CC(C)C)NC(=O)[C@@H](NC(=O)[C@H](CC(=O)O)NC(=O)[C@H](CCCCN)NC(=O)[C@@H](NC(=O)[C@H](CCCCN)NC(=O)[C@@H]1CCCN1C(=O)[C@H](CO)NC(=O)[C@H](CC(C)C)NC(=O)[C@H](CCCCN)NC(=O)[C@@H](N)CC(C)C)[C@@H](C)O)[C@@H](C)O)C(C)C)[C@@H](C)CC)[C@@H](C)CC)C(=O)N[C@@H](C)C(=O)N[C@@H](CO)C(=O)N[C@@H](CCSC)C(=O)N[C@@H](C)C(N)=O` [LKLSPKTKDTLKKVLKGAIKGAIAIASMA], the MIC in [16] was 5 µM (≈ 15 µg/mL); in test [17], 2.5 µM (≈ 7.49 µg/mL); in test [18] it was 5 µM (≈ 15 µg/mL); in [19], 2.5 µM (≈ 7.49 µg/mL); in test [20], 5 µM (≈ 15 µg/mL); in test [21], not below 80 µM. For the same compound, the MIC in test [22] is 20 µM (≈ 59.9 µg/mL); in [23], 10 µM and 5 µM; in test [24] it was 10 µM (≈ 29.9 µg/mL); in test [4] it was 20 µM (≈ 59.9 µg/mL); in test [25] it was 2.5 µM (≈ 7.49 µg/mL); in test [26], 2.5 µM (≈ 7.49 µg/mL). Also, the MIC in test [27] came out at 1.25 µM (≈ 3.74 µg/mL); in test [28] it was 1.25 µM (≈ 3.74 µg/mL); in test [29] it was 1.25 µM (≈ 3.74 µg/mL); in test [30], 1.25 µM (≈ 3.74 µg/mL); in test [31], 2.5 µM (≈ 7.49 µg/mL); in test [32], 1.25 µM (≈ 3.74 µg/mL). Also, the minimal inhibitory concentration (MIC) was 2.5 µM (≈ 7.49 µg/mL) in [33], 1.25 µM (≈ 3.74 µg/mL) in [34] and 5 µM (≈ 15 µg/mL) in test [35].

For the compound `CC(C)C[C@H](NC(=O)[C@H](CO)NC(=O)CNC(=O)[C@H](C)NC(=O)[C@@H](N)CC(N)=O)C(=O)N[C@@H](CC(C)C)C(=O)N[C@@H](CO)C(=O)NCC(=O)N[C@@H](Cc1c[nH]c2ccccc12)C(=O)NCC(=O)O` [NAGSLLSGWG], the minimal inhibitory concentration (MIC) in [36] turned out to be 0.687 µM (≈ 0.66 µg/mL); in test [37] it was 0.687 µM (≈ 0.66 µg/mL); against Vibrio cholerae, 3 µM (≈ 2.88 µg/mL).

In the case of `CC(C)C[C@H](NC(=O)[C@H](CCCNC(=N)N)NC(=O)CNC(=O)CNC(=O)[C@@H](N)CCCNC(=N)N)C(=O)N[C@H]1CSSC[C@@H](C(=O)N[C@H](C(=O)NCC(=O)N[C@@H](CCCNC(=N)N)C(N)=O)C(C)C)NC(=O)[C@H](C(C)C)NC(=O)[C@@H]2CSSC[C@H](NC(=O)[C@H](Cc3ccc(O)cc3)NC1=O)C(=O)N[C@@H](CCCNC(=N)N)C(=O)N1CCC[C@H]1C(=O)N[C@@H](CCCNC(=N)N)C(=O)N[C@@H](Cc1ccccc1)C(=O)N2` [RGGRLCYCRPRFCVCVGR], the minimum inhibitory concentration (MIC) against Candida albicans came out at 7.42 µM (≈ 15.6 µg/mL); in the test on Escherichia coli, 1.38 µM (≈ 2.89 µg/mL); in the test with Listeria monocytogenes, 1.19 µM (≈ 2.49 µg/mL); in [38], 0.666 µM (≈ 1.4 µg/mL); in [39] it was 0.761 µM (≈ 1.6 µg/mL).

With `CSCC[C@H](NC(=O)[C@H](CC(C)C)NC(=O)CNC(=O)[C@H](Cc1ccccc1)NC(=O)[C@H](Cc1ccccc1)NC(=O)[C@H](CCC(N)=O)NC(=O)[C@H](CCC(N)=O)NC(=O)[C@@H]1CCCN1C(=O)[C@H](CCCCN)NC(=O)[C@@H]1CCCN1C(=O)[C@@H](N)CCCN=C(N)N)C(N)=O` [RPKPQQFFGLM], the minimal inhibitory concentration (MIC) is more than 94.9 µM in test [40]; 6.01 µM (≈ 8.09 µg/mL) in test [41]; not below 371 µM in [42]; not below 54.9 µM in test [43]; not below 94.9 µM in test [44]; not below 127 µM in [45].

In general, MIC refers to the least concentration at which growth counts as inhibited. A lower MIC goes with inhibition by little substance.
